The source made the active and inactive calls.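 Rule for the calls: active = compounds giving half or more protection of infected cells from virus-caused growth loss, again on retest; inactive = the rest.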
System: CEM cells HIV-1 protection, formazan growth assay
Assay: NCI AIDS Antiviral Assay
Conditions: for IC50: measured here: growth of uninfected CEM cells
Method in brief: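 CEM (human) cells, HIV-1 infected vs uninfected, 5-point dosing, formazan growth read-out. Retest threshold 50% protection.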

Compound	EC50 [µM]	IC50 [µM]	outcome
COc1ccc(C2C(=O)c3ccc(OC)cc3OC2c2ccccc2)cc1 (stereo unspecified)	> 200	87.1	
Cc1cn2c(n1)Nc1sc3c(c1C2)CCCC3	> 200	30.2	
COc1ccc2nc3cc(Cl)ccc3c(NCCNCCCNC(=O)c3cc(-c4ccccc4)nc4ccccc34)c2c1	> 20	1.12	
CCOC(=O)NN(C(=O)OCC)c1ccc(N=Nc2ccc(OC)cc2)n1C	> 200	26.9	
COC1(OC)C2(Cl)C(Cl)=C(Cl)C1(Cl)C1C2C2CC1(C(=O)O)c1ccccc12 (stereo unspecified)	> 251	13.5	
Cc1ccc(NC(=S)/N=C/c2c(O)[nH]c(=O)[nH]c2=O)c(C)c1	> 200	151	
COc1ccc2oc(=N)c(C(=O)NCc3ccccc3)cc2c1	> 200	17.8	
O=C(O)CCCCCCC(=O)O	> 1450	> 1450	
Cc1cccc(C)c1NC(=O)C(=O)CC(=O)/C=C/c1ccccc1	> 776	389	
O=C1c2cccc3cccc(c23)C(=O)N1NCCO	> 200	162	
CC1CCCc2c(CC3CC(=O)NC(=O)C3)nc(N)nc21 (stereo unspecified)	> 200	> 200	
CCCNC(=O)c1ccccc1C(=O)C(Cl)c1ccccc1 (stereo unspecified)	> 214	> 214	
CCOP(=O)(OCC)C(Nc1ccc(F)cc1)c1cccc([N+](=O)[O-])c1 (stereo unspecified)	> 200	55	
COc1ccc(Cc2nnc(C)c3c(C)[nH]nc23)cc1	> 525	33.9	
Nc1ccc(S(=O)(=O)Nc2ccccc2)cc1	> 200	> 200	
COc1ccc(N2C(=O)[C@@H](N=[N+]=[N-])[C@@H]2[C@H]2COC(C)(C)O2)cc1	> 407	> 407	
CN1C(=O)NC2(O)c3ccccc3C(=O)C12O (stereo unspecified)	> 1070	> 1070	
Cc1c(N=Nc2ccc(Br)cc2)c(=O)n(-c2ccccc2)c(=O)n1-c1nc2ccccc2[nH]1	> 89.1	85.1	
O=C1NC2(NC(=O)C1=O)Nc1ccccc1S2	> 28.8	> 28.8	
COc1cc(C2c3cc4c(cc3OC(O)C2C)OCO4)cc(OC)c1O (stereo unspecified)	> 200	1.05	
C=CN1C(=O)OC[C@@H]1c1ccccc1	> 513	> 513	
CN1c2ccccc2SC2C(c3ccccc3)=NOC21 (stereo unspecified)	> 200	45.7	
COc1ccc(NC(C)=O)cc1N1C(=O)/C(=C\c2cc(OC)c(OC)c(OC)c2)SC1c1ccccc1 (stereo unspecified)			inactive

Compound	EC50 [µM]	IC50 [µM]	outcome
O=C(/C=C/c1ccc(C(F)(F)F)cc1)c1c([O-])on[n+]1-c1ccccc1			inactive
CCC(CCCC[C@H]1CC[C@@H]2CC(=O)C[C@H]12)OC (stereo partly specified)	> 200	> 200	
Cc1cc(N(CCC#N)CCC#N)ccc1N=Nc1ccccc1[N+](=O)[O-]	> 14.5	> 14.5	
O=C1C(=O)C2(CC1S(=O)(=O)c1ccccc1)c1ccccc1-c1ccccc12 (stereo unspecified)			inactive
Cc1cc(Cl)cc2c1NC(=O)C2(O)C(C)C(=O)c1ccc(Cl)cc1 (stereo unspecified)	> 186	123	
COc1ccc(C(O)c2ccc3c(c2)OCO3)cc1 (stereo unspecified)	> 200	162	
NCCN1C(=O)c2ccccc2C1c1ccc(Cl)cc1 (stereo unspecified)	> 200	> 200	
Cn1cc(NC(=O)c2cc([N+](=O)[O-])cn2C)cc1C(=O)Nc1cc(S(=O)(=O)O)c2cc(S(=O)(=O)O)cc(S(=O)(=O)O)c2c1	275	347	
CCOC(=O)Nc1ccc2nc(N3CCCCCC3)sc2c1	> 58.9	1.02	
O=C(/C=C/c1ccccc1)NC1C=Nc2ccc(Cl)cc2NC1=O (stereo unspecified)	> 200	25.7	
CC(C)C(=O)/C=C/c1ccc(Cl)cc1			inactive
CC1=NN(c2nc(N)nc(C/C(N)=N/O)n2)C(C)(C)C1	> 200	> 200	
CN(N=O)C(N)=NC(=O)c1ccccc1	> 200	141	
CCOC(=O)CCCc1cc[c]([Sb](=[O])([OH])[OH])cc1	> 200	72.4	
Cc1ccccc1/C=C1/N=C(c2ccccc2)OC1=O	> 200	33.1	
CS(=O)(=O)O/N=c1/cc(-c2ccccc2)oc2ccccc12	> 200	> 200	
Fc1ccc(C2SCc3nc4ccccc4n32)cc1Cl (stereo unspecified)	> 72.4	25.7	
COc1c2occc2c(N=Cc2ccncc2)c2ccc(=O)oc12	> 39.8	> 39.8	
Cc1ccc(Oc2nc(Cl)nc(Oc3ccc(C)cc3)n2)cc1	> 200	> 200	
Nc1nc(Cl)cc(NCC2(O)CC(CO)C2)n1 (stereo unspecified)	> 200	> 200	
COC(=O)CCC(C)C1CCC2C3CC[C@@H]4CC(CO)CCC4(C)C3CCC12C (stereo partly specified)	> 6.76	> 6.76	
CC12CCC(=O)[C@@]1(C)CCCC2O (stereo partly specified)			inactive
CC1=NC(C)CNC(C)(C)CC(C)=NC(C)CNC(C)(C)C1 (stereo unspecified)	> 200	> 200	

Compound	EC50 [µM]	IC50 [µM]	outcome
CCOC(=O)C(C[Si](C)(C)C)P(=O)(OCC)OCC (stereo unspecified)	> 575	537	
Cc1nc(-n2nc(-c3ccccc3)cc2-c2ccccc2)sc1C(/C=C/c1ccc([N+](=O)[O-])cc1)=N/NC(=O)c1ccncc1	> 42.7	37.2	
c1ccc(C2OCC(OC3CCCCO3)CO2)cc1 (stereo unspecified)	> 200	> 200	
CCOc1ccc(N2C(=O)C3c4[nH]c5ccccc5c4C4CCC(C(C)(C)C)CC4C3C2=O)cc1 (stereo unspecified)	> 2.19	> 2.19	
CCCCCCCCCCCCCCCCN1CCCCCC1=O	> 77.6	> 77.6	
c1nc2c([nH]1)CCNC2c1ccc2c(c1)OCO2 (stereo unspecified)			inactive
C1CCC2C(C1)CCCC2NC1=NCCO1 (stereo unspecified)	> 200	115	
Cc1nc(N)nc(N)c1N1CCN(c2ccc(C#N)cc2)CC1	> 100	> 100	
COP(=O)(OC)C(Cc1cn(C(C)=O)c2ccccc12)C(=O)O (stereo unspecified)	> 200	> 200	
Nc1cn(C2OC(CC(c3ccccc3)(c3ccccc3)c3ccccc3)C(O)C2O)c(=O)[nH]c1=O (stereo unspecified)	> 138	28.8	
O=[N+]([O-])c1ccccc1CS(=O)(=O)c1ccccc1			inactive
Cc1ccc(C(=O)Oc2ccccc2)cc1N=NN(C)C	> 25.7	> 25.7	
COc1ccc(C)cc1-c1ccc(-c2cc(C)ccc2OC)o1	> 72.4	58.9	
O=C(/C=C/c1c(O)c2ccccc2[nH]c1=O)CC(=O)C(=O)Nc1cccc(O)c1	> 174	> 174	
CC(C)(C)SSC(C)(C)C	> 200	> 200	
O=C(CC(=O)N(C(=O)/C=C\c1ccccc1)c1ccc(Cl)cc1)N1N=C(c2ccccc2)C(N=Nc2cccc([N+](=O)[O-])c2)C1=O (stereo unspecified)	> 200	3.55	
CCCC/C=C(/C(O)[C@]1(C)OC(=O)N2CCC[C@H]21)[Si](C)(C)C (stereo partly specified)	> 759	> 759	
O=C(C=Nc1ccccc1C(=O)[O-])c1cccs1.O=C(C=Nc1ccccc1C(=O)[O-])c1cccs1.[Zn+2]			inactive
CC(C)(C)C1CCC(=O)/C(=C/CC2CC(=O)N(c3ccccc3)C(=O)C2)C1 (stereo unspecified)	> 200	11.2	
[Cl][Pt+2][Cl].[NH-]C1CCCC1[NH-] (stereo unspecified)	> 200	49	
COc1cc(/C=C2\S/C(=N/Nc3nc(-c4ccc(Br)cc4)cs3)NC2=O)cc(OC)c1OC	> 200	17	
c1cc2c3ccsc3c3sccc3c2s1	> 200	> 200	
COc1ccc(C(=O)C(C(=O)C(=O)Nc2nc3ccc(OC)cc3s2)c2ccc(OC)cc2)cc1 (stereo unspecified)	> 38	> 38	

Compound	EC50 [µM]	IC50 [µM]	outcome
C=C(CCOC)CCC1CCCCC(=C)[C@H]1OC(C)=O (stereo partly specified)	> 200	107	
Cc1nc2c(s/c(=N\N)n2-c2ccccc2)c(=O)[nH]1	> 36.3	> 36.3	
S=C(N1CC1)N1CC1	> 200	42.7	
OC1CSCCCSCC(O)CSCCCSC1 (stereo unspecified)	> 759	389	
CCC/C=C/C=C/C(=O)OC1C(C)C2(O)C3C=C(C)C(=O)C3CC(COC(C)=O)=CC2C2C(C)(C)C12OC(=O)C(C)C (stereo unspecified)	0.977	1.02	
COc1cc(/C=C2/SC(c3ccccc3)N(c3cc(Cl)ccc3Cl)C2=O)cc(OC)c1OC (stereo unspecified)	> 200	70.8	
CNC(=S)N/N=C(\C)c1cc(OC)ccc1O	> 200	14.5	
CCOC(=O)C(NC(=O)c1ccccc1)(c1ccc(S(=O)(=O)Nc2onc(C)c2C)cc1)C(F)(F)F (stereo unspecified)	> 200	> 200	
O=C(/C=C/c1ccc(O)c(O)c1)NC(CO)C(=O)O (stereo unspecified)	> 200	28.8	
COC1=CC(=O)C2[C@H]3Cc4ccccc4[C@H]3C2(C)C1=O (stereo partly specified)	> 51.3	> 51.3	
Cc1ccc(S(=O)(=O)N/N=C/C=N/NS(=O)(=O)c2ccc(C)cc2)cc1			inactive
COc1ccc(-c2c(C(C)=O)c(-c3ccccc3)n(C3OC(COC(C)=O)C(OC(C)=O)C(OC(C)=O)C3OC(C)=O)c(=S)c2C#N)cc1 (stereo unspecified)	> 200	123	
O=C(O)c1ccccc1-c1c2cc(I)c(=O)c(I)c-2oc2c(I)c(O)c(I)cc12	> 58.9	10.7	
O=C(OCc1ccccc1)N1CCNCCNCCN(C(=O)OCc2ccccc2)CCNCC1	> 200	112	
CC1=CCC2(C#N)CCC1C2=O (stereo unspecified)	> 251	> 251	
O=[N+]([O-])C=C(c1ccc(Cl)cc1)c1ccc(Cl)cc1			inactive
CCc1ccccc1NC(=O)CC1NC(=O)CS1 (stereo unspecified)	> 339	214	
COc1cc2c(cc1O)[C@H]1COc3ccccc3[C@H]1O2	> 93.3	4.9	
COC(=O)c1c[nH]c2c1-c1cc(C(=O)OCc3ccccc3)n(S(=O)(=O)c3ccc(C)cc3)c1C(=O)C2=O	> 200	3.72	
CN(C)c1nc(N(C)C)sc(=O)n1			inactive
NC(=O)NCCCC(NC(=O)OCCCCCCn1ccc(=O)[nH]c1=O)C(=O)O (stereo unspecified)	> 200	32.4	
O=C(O)c1n[nH][nH]c1=S	126	> 200	

From PubChem BioAssay AID179 (DTP/NCI, 2004)
